pEC50, pIC50: −log10 of the molar value.
How the values were obtained:
[1] = system: phospho(Ser63)-c-jun in HK-2 cells; assay: Cell-Based Assay for JNK Inhibitors (in-cell ELISA, phospho(Ser63)-c-jun after TNFα); details: HK-2 cells (human proximal tubule cells), 60 minutes compound, then 10 ng/mL TNFα for 30 minutes
How it was run: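 HK-2 human proximal tubule cells were seeded at 40,000 cells/well, cultured 24 h, then serum-starved 16–24 h before TNFα stimulation with compound. Phospho(Ser63)-c-jun was quantified by in-cell ELISA on fixed, permeabilised cells, using a rabbit phospho-specific primary (overnight, 4 °C) and an HRP-linked anti-rabbit secondary. Absorbance was read at 450 nm.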

JNK1 = JNK1 (Homo sapiens (Human), UniProt P45983); assay: In Vitro JNK1 Assay (TR-FRET, phosphorylation of GST-c-Jun); type: biochemical; details: 0.2 nM active JNK1 kinase, 26.7 nM GST-c-Jun, 2 μM ATP, 30 min at room temperature
How it was run: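 GST-c-Jun (residues 1-79) phosphorylation by JNK1 in 50 mM HEPES pH 7.0, MgCl2, 1 mM DTT, 0.1 mM Na3VO4, 0.2 mg/mL BSA, 30 min at room temperature. Stopped with EDTA plus anti-phospho-c-Jun antibody and read by TR-FRET 1 hr later. IC50 from percent inhibition over 10 serial dilutions.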

JNK1, sequence (P45983 whole entry, the tested form may be a part): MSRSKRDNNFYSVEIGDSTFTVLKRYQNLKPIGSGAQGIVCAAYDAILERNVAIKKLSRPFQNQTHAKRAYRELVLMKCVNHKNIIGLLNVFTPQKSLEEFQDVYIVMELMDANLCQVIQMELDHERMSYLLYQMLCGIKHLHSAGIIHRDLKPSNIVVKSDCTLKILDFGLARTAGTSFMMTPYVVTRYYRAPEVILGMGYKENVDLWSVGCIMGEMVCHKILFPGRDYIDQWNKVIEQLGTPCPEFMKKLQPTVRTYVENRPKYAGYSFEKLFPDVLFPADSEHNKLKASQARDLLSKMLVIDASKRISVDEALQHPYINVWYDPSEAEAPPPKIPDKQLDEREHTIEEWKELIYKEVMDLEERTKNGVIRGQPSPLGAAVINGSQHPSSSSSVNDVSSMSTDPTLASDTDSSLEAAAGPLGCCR

Row | pEC50 [1] | pIC50 (JNK1) | Structure (SMILES)
1 | 5.70 | 8.15 | COC(=O)c1c(CNC(=O)c2ccc3scnc3c2)c(=O)c2ccc(Cl)cc2n1-c1ccccc1 [Example I-113, 3-{[(Benzothiazole-5-carbonyl)-amino]-methyl}-7-chloro-4-oxo-1-phenyl-1,4-dihydro-quinoline-2-carboxylic acid methyl ester]
2 | 5.39 | 8.15 | COC(=O)c1c(CNC(=O)c2ccc(-c3ncc[nH]3)cc2)c(=O)c2ccc(Cl)cc2n1-c1ccccc1 [Example I-114, 7-Chloro-3-{[4-(1H-imidazol-2-yl)-benzoylamino]-methyl}-4-oxo-1-phenyl-1,4-dihydro-quinoline-2-carboxylic acid methyl ester]
3 | 5.62 | 8.10 | COC(=O)c1c(CNC(=O)c2ccc(S(N)(=O)=O)cc2)c(=O)c2ccc(Cl)cc2n1-c1ccccc1 [Example I-115, 7-Chloro-4-oxo-1-phenyl-3-[(4-sulfamoyl-benzoylamino)-methyl]-1,4-dihydro-quinoline-2-carboxylic acid methyl ester]
4 | 5.42 | 8.00 | COC(=O)c1c(CNC(=O)c2ccc(C(N)=O)cc2)c(=O)c2ccc(Cl)cc2n1-c1ccccc1 [Example I-117, 3-[(4-Carbamoyl-benzoylamino)-methyl]-7-chloro-4-oxo-1-phenyl-1,4-dihydro-quinoline-2-carboxylic acid methyl ester]

More lines, now with the values behind:

Row | Structure (SMILES) | pEC50 [1] | pIC50 (JNK1)
5 | O=C(NCc1cn(-c2ccccc2F)c2cc(F)ccc2c1=O)c1ccc(N2CCC(CO)CC2)nc1 [Example I-106, 4-Hydroxymethyl-3,4,5,6-tetrahydro-2H-[1,2′]bipyridinyl-5′-carboxylic acid [7-fluoro-1-(2-fluoro-phenyl)-4-oxo-1,4-dihydro-quinolin-3-ylmethyl]-amide] | 4.30 | 7.28
6 | O=C(NCc1cn(-c2ccccc2F)c2cc(F)ccc2c1=O)c1ccc(N2CCOCC2)nc1 [Example I-108, N-[7-Fluoro-1-(2-fluoro-phenyl)-4-oxo-1,4-dihydro-quinolin-3-ylmethyl]-6-morpholin-4-yl-nicotinamide] | 4.33 | 6.92
7 | COC(=O)c1c(CNC(=O)c2ccc(S(C)(=O)=O)cc2)c(=O)c2ccc(Cl)cc2n1-c1ccccc1 [Example I-109, 7-chloro-3-[(4-methanesulfonyl-benzoylamino)-methyl]-4-oxo-1-phenyl-1,4-dihydroquin-oline-2-carboxylic acid methyl ester] | 5.24 | 8.40
8 | COC(=O)c1c(CNC(=O)c2ccc(-c3cnco3)cc2)c(=O)c2ccc(Cl)cc2n1-c1ccccc1 [Example I-110, 7-Chloro-3-[(4-oxazol-5-yl-benzoylamino)-methyl]-4-oxo-1-phenyl-1,4-dihydro-quinoline-2-carboxylic acid methyl ester] | 5.40 | 8.40
9 | COC(=O)c1c(CNC(=O)c2ccc(-c3nnc[nH]3)cc2)c(=O)c2ccc(Cl)cc2n1-c1ccccc1 [Example I-111, 7-Chloro-4-oxo-1-phenyl-3-{[4-(4H-[1,2,4]triazol-3-yl)-benzoylamino]-methyl}-1,4-dihydro-quinoline-2-carboxylic acid methyl ester] | 5.89 | 8.30
10 | COC(=O)c1c(CNC(=O)c2ccc(N3CCOCC3)nc2)c(=O)c2ccc(Cl)cc2n1-c1ccccc1 [Example I-112, 7-Chloro-3-{[(6-morpholin-4-yl-pyridine-3-carbonyl)-amino]-methyl}-4-oxo-1-phenyl-1,4-dihydro-quinoline-2-carboxylic acid methyl ester] | 5.92 | 8.22
11 | CNC(=O)c1ccc(C(=O)NCc2c(C(=O)OC)n(-c3ccccc3)c3cc(Cl)ccc3c2=O)cc1 [Example I-118, 7-Chloro-3-[(4-methylcarbamoyl-benzoylamino)-methyl]-4-oxo-1-phenyl-1,4-dihydro-quinoline-2-carboxylic acid methyl ester] | 5.43 | 7.96
